Results: patent US20040242498A1, “CXCR3 antagonists” (priority 2003, published 2004)
“Also recorded” adds a separate entry of the source.

What was measured:
[1] = Excretion of compound 101 and metabolites in urine and bile of bile duct cannulated rats; format: in vivo, Sprague Dawley rat; details: bile duct cannulated male rats
Protocol: In addition, compound 101 was administered intravenously or orally to bile duct cannulated male Sprague Dawley rats. Urine and bile samples were collected over a period of 24 hours and analyzed by liquid chromatography/mass spectrometry. Compound 101 was detected in a small amount (<1% of the administered dose) in urine and in bile. In urine, compound 103, the pyridyl-N-oxide of compound 101, was detected. Five metabolites, compounds 103, 105, 107, 109 and 111, were all detected in bile excretions; compound 111 was detected in a trace amount in bile. A proposed metabolic pathway for compound 101 is provided at FIG. 3.
Overall, N-oxidation and O-deethylation occurred to similar extents. The O-deethyl metabolite was detected mainly as a glucuronide conjugate, compound 109. […] Only trace amounts of the glucuronide of the N-oxidized O-deethyl metabolite, compound […], were detected. The detected metabolites, and the relative amounts thereof, in urine and bile agree with the metabolites detected with rat liver microsomal fractions and rat hepatocytes in vitro as discussed above.

[2] = test system: any cytochrome p450 isoform, including 3A4; test: Inhibition or induction of cytochrome p450 isoforms by compound 101; format: in vitro ADME, human
[3] = Metabolites of compound 101 with rhesus monkey liver microsomal fractions and hepatocytes; format: in vitro ADME; details: formed from compound 101; liver microsomal fractions (10 μM, 105 min) or cryopreserved hepatocytes
Protocol: (§1) Compound 101 was contacted with microsomal fractions from Sprague Dawley rat, dog (beagle), rhesus monkey and human liver to detect and identify resulting metabolites. In particular, Compound 101 in PBS (10 μM) was incubated in a mixture of microsomal protein (1 mg/mL), EDTA (1.0 mM) and NADPH (5 mM) at 37° C. for a total of 105 min. The reaction was stopped by the addition of acetonitrile containing 0.2% formic acid (400 μL). Samples were centrifuged and the supernatant was subjected to LCMS analysis.
(§2) Compound 103, the pyridyl-N-oxide product of compound 101, was detected following contact with the microsomal fractions from all species. Compound 105, the deethylation product of compound 101, was also detected following contact with the microsomal fractions from all species. […] With human microsomal fractions, an amount of compound 107, the deethylation and pyridyl-N-oxide product of compound 101, was also detected.
(§3) Compound 101 was also incubated with intact dog and monkey liver cells (cryopreserved hepatocytes). Following incubation, the formation of compound 109, the glucuronide adduct of compound 105, was detected.

[4] = Metabolites of compound 101 with dog liver microsomal fractions and hepatocytes; format: in vitro ADME, dog (beagle); details: formed from compound 101; liver microsomal fractions (10 μM, 105 min) or cryopreserved hepatocytes
Protocol: as §1, §2, §3

[5] = Metabolites of compound 101 with human liver microsomal fractions; format: in vitro ADME; details: formed from compound 101 (10 μM), microsomal protein 1 mg/mL, NADPH, 37° C., 105 min, LCMS
Protocol: as §1, §2

[6] = Metabolites of compound 101 with rat liver microsomal fractions; format: in vitro ADME, Sprague Dawley rat; details: formed from compound 101 (10 μM), 105 min
Protocol: as §1, §2

[7] = compound 101 intravenously or orally, 24 hours collection
[8] = after compound 101 intravenously or orally, 24 hours, LC/MS

Compound	Amount detected in urine and in bile, of the administered dose (Rat in vivo) [1, 7]	Inhibition or induction of cytochrome p450 isoforms [2]	Detection in bile [1, 8]	Metabolic Forms of Compound 101: Rat (in vivo), excreta in which detected [1, 7]	Metabolic Forms of Compound 101: Monkey [3]	Metabolic Forms of Compound 101: Dog [4]	Metabolic Forms of Compound 101: Human [5]	Metabolic Forms of Compound 101: Rat (in vitro) [6]	Detection in urine [1, 8]
CCOc1ccc(-n2c([C@@H](C)N(Cc3cccnc3)C(=O)Cc3ccc(OC(F)(F)F)cc3)nc3ncccc3c2=O)cc1 [Compound 101]	<1%	little or no inhibition or induction	–	–	–	–	–	–	–
C[C@H](c1nc2ncccc2c(=O)n1-c1ccc(OC2OC(C(=O)O)C(O)C(O)C2O)cc1)N(Cc1ccc[n+]([O-])c1)C(=O)Cc1ccc(OC(F)(F)F)cc1 (stereo partly shown) [Compound 111]	–	–	trace amount	bile (traces)	–	–	–	–	–
C[C@H](c1nc2ncccc2c(=O)n1-c1ccc(OC2OC(C(=O)O)C(O)C(O)C2O)cc1)N(Cc1cccnc1)C(=O)Cc1ccc(OC(F)(F)F)cc1 (stereo partly shown) [Compound 109]	–	–	detected; also recorded: trace amounts	bile	detected; also recorded: minor	detected; also recorded: minor	–	–	–
C[C@H](c1nc2ncccc2c(=O)n1-c1ccc(O)cc1)N(Cc1cccnc1)C(=O)Cc1ccc(OC(F)(F)F)cc1 [Compound 105]	–	–	detected	bile	detected; also recorded: minor	detected; also recorded: minor	detected; also recorded: minor	approximately equal amounts; also recorded: major	–
CCOc1ccc(-n2c([C@@H](C)N(Cc3ccc[n+]([O-])c3)C(=O)Cc3ccc(OC(F)(F)F)cc3)nc3ncccc3c2=O)cc1 [Compound 103]	–	–	detected	urine & bile	more compound 103 than compound 105; also recorded: major	more compound 103 than compound 105; also recorded: major	more compound 103 than compound 105; also recorded: major	approximately equal amounts; also recorded: major	detected
C[C@H](c1nc2ncccc2c(=O)n1-c1ccc(O)cc1)N(Cc1ccc[n+]([O-])c1)C(=O)Cc1ccc(OC(F)(F)F)cc1 [Compound 107]	–	–	detected; also recorded: significant amounts	bile	minor	–	detected; also recorded: minor	–	–
